Measurements taken from article PMC6104605, “Discovery of new chromen-4-one derivatives as telomerase inhibitors through regulating expression of dyskerin” (Journal of Enzyme Inhibition and Medicinal Chemistry, 2018).

Legend:
[1] = system: human gastric cancer cells SGC-7901; assay: MTT anticancer assay, SGC-7901; assay type: cell-based
Procedure: (§1) The MTT was purchased from Sigma. Cell Cycle Analysis Kit and Apoptosis Analysis Kit were purchased from Bestbio (China). Mitochondrial membrane potential assay kit with JC-1 was purchased from Beyotime (China). All the materials were used as received without further purification unless noted specifically. The cell culture was maintained on DMEM medium (Hyclone, US) supplemented with 10% fetal bovine serum (Sijiqing, China), 100 U/mL penicillin and 100 µg/mL streptomycin in 25-cm^2 culture flasks at 37 °C humidified atmosphere with 5% CO2. Drugs were dissolved in DMSO and filtered through 0.22-µm pore-size filter units before addition to cell line appropriate media. When tumor cells were grown to log phase, diluting to 5 × 10^4 cells mL^−1 with the complete medium, 100 µL of the obtained cell suspension was added to each well of 96-well culture plates. The subsequent incubation was performed at 37 °C, 5% CO2 atmosphere for 48 h before subjecting to anti-proliferation assessment. After 48-h exposure period, 20 µL of PBS containing 5 mg·mL^−1 of MTT was added to each well. After 4 h, the medium was replaced by 150 µL DMSO to dissolve the purple formazan crystals produced. […] The data represented the mean of three experiments in triplicate and were expressed as means ± SD.

[2] = system: γH2AX; assay: Western blot, γH2AX; assay type: cell-based, human; details: SGC-7901, 1, 2 and 4 μM, 48 h
Procedure: (§2) An equivalent volume of 5 × SDS-sample buffer was added to cell lysates and boiled for 10 min. The supernatants were subjected to electrophoresis on SDS-PAGE gels and transferred to PVDF membrane by using a Bio-Rad apparatus. Membranes were blocked for 3 h at room temperature in TBST containing 5% non-fat dried milk and probed overnight at 4 °C with antibodies. CyclinD1 (abcam, ab134175, 1:10000), CDC25A (abcam, ab156574, 1:1000), CDC25C (abcam, ab32051, 1:1000), bcl-2 (abcam, ab32124,1:1000), bax (abcam, ab32503, 1:1000), PARP (abcam, ab191217, 1:1000), γH2AX (abcam, ab81299, 1:5000), dyskerin (abcam, ab156877, 1:1000), NHP2 (abcam, ab180498, 1:1000), NOP10 (abcam, ab133726, 1:1000) antibody was performed with rabbit primary antibody. Otherwise, β-actin (ZSGB-BIO, 1:1000) detection was performed with mouse primary antibody which was served as internal controls. Protein bands of β-actin was visualised using peroxidase-labeled goat anti-mouse and others were visualised using peroxidase-labeled goat anti-rabbit secondary antibody (1:5000 dilution, 1 h, room temperature), and the protein expression signals were detected by the BeyoECL Plus (Beyotime).

[3] = system: NOP10; assay: Western blot, NOP10; assay type: cell-based, human; details: SGC-7901, 1, 2 and 4 μM, 48 h
Procedure: as §2

[4] = system: SGC-7901 cells; assay: Annexin V-FITC/PI apoptosis analysis by flow cytometry; assay type: cell-based, human; details: 48 h, control 3.06%
Procedure: Apoptosis was detected by flow cytometric analysis of annexin V staining. Annexin V-FITC/PI assay was performed according to previously described. First, adherent SGC-7901 cells were harvested and suspended in the annexin-binding buffer (1 × 10^6 cells/mL). Then, cells were incubated with V-FITC buffer and incubated with annexin V-FITC for 15 min and then stained by PI for 5 min at 4 °C in the dark, immediately analyzed by flow cytometry. The data are presented as biparametric dot plots showing PI red fluorescence versus annexin V-FITC green fluorescence.

[5] = system: human liver cancer cell SMMC-7721; assay: MTT anticancer assay, SMMC-7721; assay type: cell-based; details: 48 h exposure, mean ± SD
Procedure: (§3) The MTT was purchased from Sigma. Cell Cycle Analysis Kit and Apoptosis Analysis Kit were purchased from Bestbio (China). Mitochondrial membrane potential assay kit with JC-1 was purchased from Beyotime (China). All the materials were used as received without further purification unless noted specifically. The cell culture was maintained on DMEM medium (Hyclone, US) supplemented with 10% fetal bovine serum (Sijiqing, China), 100 U/mL penicillin and 100 µg/mL streptomycin in 25-cm^2 culture flasks at 37 °C humidified atmosphere with 5% CO2. Drugs were dissolved in DMSO and filtered through 0.22-µm pore-size filter units before addition to cell line appropriate media. When tumor cells were grown to log phase, diluting to 5 × 10^4 cells mL^−1 with the complete medium, 100 µL of the obtained cell suspension was added to each well of 96-well culture plates. The subsequent incubation was performed at 37 °C, 5% CO2 atmosphere for 48 h before subjecting to anti-proliferation assessment. After 48-h exposure period, 20 µL of PBS containing 5 mg·mL^−1 of MTT was added to each well. After 4 h, the medium was replaced by 150 µL DMSO to dissolve the purple formazan crystals produced. The absorbance at 492 nm of each well was measured on an ELISA plate reader. The data represented the mean of three experiments in triplicate and were expressed as means ± SD. The IC50 value was defined as the concentration at which 50% of the cells could survive. The following human tumor cell lines were used in the assay: human gastric cancer cells SGC-7901, human liver cancer cell SMMC-7721 and HepG2, human cervical cancer cell Hela and human glioma cell U87.

[6] = system: PARP; assay: Western blot, PARP; assay type: cell-based, human; details: SGC-7901, 1, 2 and 4 μM, 48 h
Procedure: as §2

[7] = system: CDC25C; assay: Western blot, CDC25C; assay type: cell-based, human; details: SGC-7901, 1, 2 and 4 μM, 48 h
Procedure: as §2

[8] = Octanol water partition coefficient, shake flask; assay type: physicochemical; details: octanol/PBS pH 7.4, 37 °C
Procedure: Octanole water partition coefficients was measured by the method of shake flask with slight modification. The aqueous phase was replaced by PBS (pH 7.4). First, the phase of octanol and the aqueous were saturated with each other. Then, the mixture containing title compounds was shaken at 37 °C. After 24 h, the mixture was centrifuged at 4000 rpm for 30 min, followed by the measured with ultraviolet spectrophotometer. At last, logP values were calculated.

[9] = system: human cervical cancer cell Hela; assay: MTT anticancer assay, Hela; assay type: cell-based; details: MTT, 48 h exposure, mean ± SD, read-out: IC50 Hela
Procedure: as §1

[10] = system: human liver cancer cell HepG2; assay: MTT anticancer assay, HepG2; assay type: cell-based; details: 48 h exposure, mean ± SD, dash = footnote d 'None'
Procedure: as §3

[11] = system: dyskerin; assay: Western blot, dyskerin; assay type: cell-based, human; details: SGC-7901, 1, 2 and 4 μM, 48 h
Procedure: as §2

[12] = system: NHP2; assay: Western blot, NHP2; assay type: cell-based, human; details: SGC-7901, 1, 2 and 4 μM, 48 h
Procedure: as §2

[13] = system: CDC25A; assay: Western blot, CDC25A; assay type: cell-based, human; details: SGC-7901, 1, 2 and 4 μM, 48 h
Procedure: as §2

COc1cc(OC)c2c(=O)c(OCCCCN3CCN(C(=O)c4ccncc4)CC3)c(-c3cc(OC)c(OC)c(OC)c3)oc2c1 [Compound 5i, 3-(4-(4-isonicotinoylpiperazin-1-yl)butoxy)-5,7-dimethoxy-2-(3,4,5-trimethoxyphenyl)-4H-chromen-4-one]
activity against SGC-7901 cells (in words) [1]: good activity | IC50 ([1]; Homo sapiens, SGC-7901, MTT, 48 h exposure, mean ± SD): 1350 ± 170 nM | expression of γH2AX (western blot) [2]: significantly decrease | NOP10 protein level (western blot) [3]: no significant changes | Apoptosis ratio ([4]; SGC-7901, 1 µM): 12.47% | Apoptosis ratio ([4]; SGC-7901, 2 µM): 26.3% | Apoptosis ratio ([4]; SGC-7901, 4 µM): 48.7% | IC50 [5]: 1330 ± 140 nM | PARP (western blot) [6]: reduced | expression of CAC25C (western blot) [7]: significantly decrease | logP at 24 h ([8]; octanol/PBS (pH 7.4), pH 7.4, shake flask, read-out: Log p (octanole water partition coefficient)): 3.01 | Log p (octanole water partition coefficient) ([8]; shake flask, 24 h): 2.81 | IC50 [9]: 1020 ± 210 nM | IC50 [10]: 4120 ± 510 nM | protein level of dyskerin (western blot) [11]: significantly reduced | NHP2 protein level (western blot) [12]: no significant changes | expression of CDC25A (western blot) [13]: significantly decrease
